# Measured values reported in patent US20100197717A1, “COMBINATION OF A 5HT7 RECEPTOR LIGAND AND AN OPIOID RECEPTOR LIGAND” (priority 2007, published 2010).
# Structures can show the parent of a compound that is named as a salt. Where two headings read alike, the source gives them in different places.
# Assays:
# Male CD1 mice [1] = test: Tail Flick Test; format: in vivo
# 5-HT6 = 5-HT6 (Homo sapiens, UniProt P50406); test: 5-HT6 inhibition; format: binding; settings: 10^−7M; as dihydrochloride; read-out: 5-HT6 inhib. (10^−7M) (%)
# [2] = target: T1, Cloned Human Serotonin Receptor, Subtype 7 (h5HT7) (Homo sapiens, UniProt P34969); test: Radioligand binding 5HT7
# T1 construct: purchased PerkinElmer 6120512; host or cells: CHO cells
# Procedure: Radioligand binding assays were performed using the Cloned Human Serotonin Receptor, Subtype 7 (h5HT7), expressed in CHO cells, coated on Flashplate (Basic FlashPlate Cat.: SMP200) from PerkinElmer (Cat.: 6120512). The protocol assay was essentially the recommended protocol in the Technical Data Sheet by PerkinEmer Life and Analytical Sciences. The Mass membrane protein/well was typically 12 μg and the Receptor/well was about 9-10 fmoles. The Flashplate were let equilibrate at room temperature for one hour before the addition of the components of the assay mixture. The binding buffer was: 50 mM Tris-HCl, pH 7.4, containing 10 mM MgCl2, 0.5 mM EDTA and 0.5% BSA. The radioligand was [^125I]LSD at a final concentration of 0.82 nM. Nonspecific binding was determined with 50 μM of Clozapine. The assay volume was 25 μl. TopSeal-A were applied onto Flashplate microplates and they were incubated at room temperature for 240 minutes in darkness. The radioactivity were quantified by liquid scintillation spectrophotometry (Wallac 1450 Microbeta Trilux) with a count delay of 4 minutes prior to counting and a counting time of 30 seconds per well. Competition binding data were analyzed by using the LIGAND program (Munson and Rodbard, LIGAND: A versatile, computerized approach for characterization of ligand-binding systems. Anal. Biochem. 107: 220-239, 1980) and assays were performed in triplicate determinations for each point.
# 5HT7 receptor = 5HT7 receptor (Homo sapiens, UniProt P34969); settings: statement in the definitions; cited from earlier work
# Male CD1 mice [3] = settings: day 5, morphine 4 mg/kg alone (vs Non-Tolerant) or + Chemical Example 1 10 mg/kg (vs morphine only)
# Procedure: (§1) The mice were kept on the hot plate for no longer than 450 seconds in order to avoid the development of cutaneous lesions. The vehicle, the active substances and the inventive active substance combination to be tested were administered—sometimes in differing concentrations—by s.c. injection to different groups of mice. 0.5 hours after the administration the animals are put onto the hot plate and the time is measured until they show signs of pain, divided by Fore Paw Licking (FPL), Hind Paw Licking (HPL) and Jumping, to allow conclusions on differentiations of pain types through the different pain symptoms/signs of pain. The analgesic efficacy of the active substances or active substance combination is calculated on the basis of the values obtained for the comparison group of mice to which is only administered the vehicle (baseline). By comparing to baseline (defined as 0% analgesia) and to a failure of pain signs (defined as 100% analgesia) Percentage of analgesia was determined. In some cases based on this calculation and with different concentrations of the active substances or active substance combination ED50 values were determined.
# Male CD1 Mice were divided in 2 groups, the group receiving s.c. injections of morphine in high doses to develop tolerance (hereinafter called Tolerants), and the group receiving only vehicle (called Non-Tolerants). The following treatment scheme was followed:
# The mice were placed 30 minutes after injection on the hot plate heated to 50° C. The signs of pain shown were divided by Fore Paw Licking (FPL), Hind Paw Licking (HPL) and Jumping and measured/counted. The Baseline was determined based on saline injection. Significance values were determined vs. respective “non tolerant” group, the “Morphine-tolerant group” or the “Morphine-non tolerant group” with *** p<0.001 vs. respective “non tolerant” group, # # # p<0.001 vs. “Morphine-tolerant group” and α α α p<0.001 vs. “Morphine-non tolerant group” (Newman-Keuls Multiple Comparison Test post-ANOVA).
# Male CD1 mice [4] = test: animal or person; settings: Mus musculus, sc
# Procedure: Male CD1 mice aged from 6 to 8 weeks old were used in these studies. Animals were housed in groups of five, provided with food and water ad libitum and kept in controlled laboratory conditions with the temperature maintained at 21±1° C. and light in 12 h cycles (on at 07:00 h and off at 19:00 h). Experiments were carried out in a soundproof and air-regulated experimental room. The number of mice ranged from 8 to 16 per group in each individual experiment.
# All the compounds were dissolved in physiological saline and administered in a volume of 5 ml/kg of body weight through the subcutaneous (s.c.) route. When compounds were co-administered, they were injected s.c. opposite flanks of the mice. The doses of drugs refer to their salt forms.
# The analgesic activity of the inventive active substance combination is determined in male CD1 following and adapting the description in the publication of G. Woolfe and A. D. MacDonald, J. Pharm.
# as §1
# Male CD1 mice [5] = settings: day 5; morphine 4 mg/kg alone (vs Non-Tolerant) or + Chemical Example 1 10 mg/kg (vs morphine only); FIG. 12
# Procedure: Briefly, the animals (male CD1 mice) were restrained in a Plexiglas tube and placed on the tail flick apparatus (LI 7100, Letica, S. A., Spain). A noxious beam of light was focussed on the tail, and the tail flick latency was recorded automatically to the nearest 0.1 s. The intensity of the radiant heat source was adjusted to yield baseline latencies between 2 and 3 s; this intensity was never changed and any animal whose baseline latency was outside the pre-established limits was excluded from the experiments. In order to minimise injury in the animals, a cut-off time of 10 s was used. The animals received an s.c. injection of the vehicle (saline), drug or drug combination under study, and tail flick latencies were measured and are measured at 45 min after drug or vehicle administration. Baseline tail flick latencies were recorded after saline/vehicle injection. By comparing to baseline (defined as 0% analgesia) and to a failure of pain reaction/tail flick (defined as 100% analgesia) Percentage of analgesia was determined.
# Male CD1 Mice were divided in 2 groups, the group receiving s.c. injections of morphine in high doses to develop tolerance (hereinafter called Tolerants), and the group receiving only vehicle (called Non-Tolerants). […]
# The mice were placed 45 minutes after injection in the tail-flick apparatus. The Baseline was determined based on saline injection. […]
# [6] = read-out: 5-HT7 %-Inhib. (10^−7 M)
# [7] = read-out: 5-HT7 %-Inhib. (10^−8 M)
# [8] = read-out: 5-HT7 %-Inhib. (10^−6 M)
# T1 sequence (P34969 whole entry): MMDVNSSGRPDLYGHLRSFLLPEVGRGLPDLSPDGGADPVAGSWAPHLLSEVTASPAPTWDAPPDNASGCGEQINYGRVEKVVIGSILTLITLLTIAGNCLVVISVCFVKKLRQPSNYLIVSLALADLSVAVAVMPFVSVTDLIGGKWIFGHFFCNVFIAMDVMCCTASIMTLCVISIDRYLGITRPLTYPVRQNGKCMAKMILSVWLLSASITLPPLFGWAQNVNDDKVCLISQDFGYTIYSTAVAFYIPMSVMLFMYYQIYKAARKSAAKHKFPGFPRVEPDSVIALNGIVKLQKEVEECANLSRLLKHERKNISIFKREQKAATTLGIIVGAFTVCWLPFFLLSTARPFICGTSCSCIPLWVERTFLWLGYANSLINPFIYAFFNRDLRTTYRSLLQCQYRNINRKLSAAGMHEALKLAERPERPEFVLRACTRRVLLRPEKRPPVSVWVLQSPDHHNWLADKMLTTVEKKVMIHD
# Sequence of 5HT7 receptor (P34969 whole entry): as above
# Sequence of 5-HT6 (P50406 whole entry, species assumed): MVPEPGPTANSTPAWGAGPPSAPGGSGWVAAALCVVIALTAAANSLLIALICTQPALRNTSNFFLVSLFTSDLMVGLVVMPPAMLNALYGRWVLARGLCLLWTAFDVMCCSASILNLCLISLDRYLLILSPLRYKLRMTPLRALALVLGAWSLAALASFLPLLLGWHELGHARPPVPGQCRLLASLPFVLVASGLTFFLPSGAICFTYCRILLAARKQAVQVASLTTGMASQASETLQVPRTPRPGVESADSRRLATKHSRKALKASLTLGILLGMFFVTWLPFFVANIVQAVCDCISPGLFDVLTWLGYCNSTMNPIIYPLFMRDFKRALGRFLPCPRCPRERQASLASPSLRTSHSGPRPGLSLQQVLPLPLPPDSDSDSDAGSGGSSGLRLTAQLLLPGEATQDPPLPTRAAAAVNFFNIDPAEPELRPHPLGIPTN
SMILES,inhibition at 0.1 µM ([2]; read-out: % Inh (10^−7 M)) [%],inhibition at 0.01 µM ([2]; read-out: % Inh (10^−8 M)) [%],inhibition at 1 µM ([2]; read-out: % Inh (10^−6 M)) [%],other results
Cc1nn(C)c(C)c1-c1cccc(CCN(C)C)c1 [Chemical Example 1],98.6,60.8,,"effect on efficacy of a low dose of morphine, tail flick (Male CD1 mice [1]; 1.25, 2.5, 5 or 10 mg/kg s.c. + morphine 2 mg/kg (FIG. 9B)): increases in a dose-dependent manner; analgesic effect per se, tail flick (Male CD1 mice [1]; 1.25, 2.5, 5 or 10 mg/kg s.c. alone (FIG. 9B)): devoid of effect per se; inhibition at 0.1 µM (5-HT6): 5.4%"
"Cc1nn(C)c(C)c1-c1cccc2c1CCC(N(C)C)C2 (stereo not shown) [Chemical Example K, Dimethyl-[5-(1,3,5-trimethyl-1H-pyrazol-4-yl)-1,2,3,4-tetrahydro-naphthalen-2-yl]-amine]",,,,"IC50 [2]: 3.9 nM; inhibition at 0.1 µM [2, 6]: 91.3%; inhibition at 0.01 µM [2, 7]: 38.8%"
"Cc1cccc(S(=O)(=O)N(C)[C@H](C)CCN2CCC(C)CC2)c1.Cl [SB-258719, (R)-3,N-Dimethyl-N-(1-methyl-3-(4-methylpiperidin-1-yl)propyl)benzene sulfonamide hydrochloride]",,,,"change in the morphine effect, tail flick (Male CD1 mice [1]; SB-258719 10 mg/kg + varying doses of morphine s.c.): did not produce any significant change; effect on potenciation of morphine analgesia exerted by Chemical Example 1, tail flick (Male CD1 mice [1]; morphine 2 mg/kg + Chemical Example 1 10 mg/kg + SB-258719 10 mg/kg s.c. (FIG. 9C)): reverted"
"CCCN(CCC)CCc1cccc(-c2c(C)nn(C)c2C)c1 [Chemical Example 4, Dipropyl-{2-[3-(1,3,5-trimethyl-1H-pyrazol-4-yl)-phenyl]-ethyl}-amine]",98.7,48.6,90,
"CN[C@H]1CCc2c(cccc2-c2c(C)nn(C)c2C)C1 [Chemical Example H, (2S)-Methyl-[5-(1,3,5-trimethyl-1H-pyrazol-4-yl)-1,2,3,4-tetrahydro-naphthalen-2-yl]-amine hydrochloride]",,,,"IC50 [2]: 2.3 nM; inhibition at 1 µM [2, 8]: 98.1%; inhibition at 0.1 µM [2, 6]: 97.8%; inhibition at 0.01 µM [2, 7]: 86.1%"
"CCCN(CCC)CCc1cccc(-c2c(C)cccc2C)c1 [Chemical Example 12, [2-(2′,6′-Dimethyl-biphenyl-3-yl)-ethyl]-dipropyl-amine]",92.2,43.8,93.3,
CCCN(CCC)C1CCc2cccc(O)c2C1 (stereo not shown) [8-OH-DPAT],,,,agonist classification on the 5-HT7 receptor (5HT7 receptor): agonist
"COc1ccccc1-c1cccc(CCN(C)C)c1 [Chemical Example 21, [2-(2′-Methoxy-biphenyl-3-yl)-ethyl]-dimethyl-amine]",69.2,20,95.4,
"Cc1cccc(C)c1-c1cccc(CCN(C)C)c1 [Chemical Example 9, [2-(2′,6′-Dimethyl-biphenyl-3-yl)-ethyl]-dimethyl-amine]",88.9,65.9,105,
"COc1cccc(OC)c1-c1cccc(CCN(C)C)c1 [Chemical Example 13, [2-(2′,6′-Dimethoxy-biphenyl-3-yl)-ethyl]-dimethyl-amine]",60.5,54.4,105,
"CCCN(CCC)CCc1cccc(-c2ccccc2OC)c1 [Chemical Example 24, [2-(2′-Methoxy-biphenyl-3-yl)-ethyl]-dipropyl-amine]",37.8,-1.8,92.4,
"CCN(CC)CCc1cccc(-c2c(C)cccc2C)c1 [Chemical Example 11, [2-(2′,6′-Dimethyl-biphenyl-3-yl)-ethyl]-diethyl-amine]",62.3,-13.7,98.2,
"CN(C)CCc1cccc(-c2cnn(C)c2)c1 [Chemical Example 17, Dimethyl-{2-[3-(1-methyl-1H-pyrazol-4-yl)-phenyl]-ethyl}-amine]",16.9,-1,46,
"CCN(CC)CCc1cccc(-c2c(C)nn(C)c2C)c1 [Chemical Example 3, Diethyl-{2-[3-(1,3,5-trimethyl-1H-pyrazol-4-yl)-phenyl]-ethyl}-amine]",41.5,4.8,98.1,
CN1CC[C@]23c4c5ccc(O)c4O[C@H]2[C@@H](O)C=C[C@H]3[C@H]1C5 [morphine],,,,"analgesic effect, FPL, Tolerant group (Male CD1 mice [3]; FIG. 10A): reduced; analgesic effect, HPL, Tolerant group (Male CD1 mice [3]; FIG. 10B): reduced; analgesic effect, Jump, Tolerant group (Male CD1 mice [3]; FIG. 11): reduced; ED50 (Male CD1 mice [4]; read-out: ED50, Fore Paw Licking (FPL)): 24 mg/kg; ED50 (Male CD1 mice [4]; read-out: ED50, Hind Paw Licking (HPL)): 9.28 mg/kg; ED50 (Male CD1 mice [4]; read-out: ED50, Jumping): 3.19 mg/kg; analgesic effect, tail flick, Tolerant group (Male CD1 mice [5]): significantly reduced"
"Cc1nn(C)c(C)c1-c1cccc2c1CC[C@@H](N(C)C)C2 [Chemical Example J, (2R)-Dimethyl-[5-(1,3,5-trimethyl-1H-pyrazol-4-yl)-1,2,3,4-tetrahydro-naphthalen-2-yl]-amine hydrochloride]",,,,"inhibition at 1 µM [2, 8]: 59.6%; inhibition at 0.1 µM [2, 6]: 9.6%; inhibition at 0.01 µM [2, 7]: -1.8%"
"Cc1nn(C)c(C)c1-c1cccc2c1CC[C@H](N(C)Cc1ccccc1)C2 [Chemical Example F, (2S)-Benzyl-methyl-[5-(1,3,5-trimethyl-1H-pyrazol-4-yl)-1,2,3,4-tetrahydro-naphthalen-2-yl]-amine]",,,,"inhibition at 1 µM [2, 8]: 110%; inhibition at 0.1 µM [2, 6]: 44.7%; inhibition at 0.01 µM [2, 7]: 16.3%"
